According to patent US12473344B2, “Chimeric antigen receptor polypeptides and methods of using same” (The Board of Trustees of the Leland Stanford Junior …, priority 2018, dated 2025):

How the values were obtained:
HCV NS3 protease = conditions: for CAR expression after removal of the protease inhibitor by washing / CAR expression after incubation with protease inhibitor: B7H3 CAR-SMASh
Protocol: (§1) Flow cytometry of samples was performed on an LSR Fortessa (BD Bioscience) and data were analyzed using FlowJo software. B7H3 CARs were detected using B7H3 Fc. GD2 and CD19 CARs were detected by 1A7 and FMC63 anti-idiotype antibody, respectively. CD 22 CARs were detected using biotinylated protein L and APC conjugated streptavidin. FACS plots were gated on live single T cells. Untransduced T cells (“Mock”) were used as controls.
(§2) CAR T cells were incubated in the indicated concentration of drug in T cell culture media (above) until analysis by FACS. Media was changed every 48-72 hours. Removal of drug was achieved by washing CAR T cells in T cell culture media 3 times.

[1] = system: markers of T cell exhaustion; assay: Flow cytometry of activation/exhaustion-associated markers on CAR-SMASh T cells; format: cell-based, human
Text: Asunaprevir (ASV), danoprevir (DPV), simeprevir (SPV), and grazoprevir (GPV) were purchased from ApexBio. Cell surface markers were stained with mouse monoclonal antibodies targeting PD-1 (PE-Cy7, eBioscience), LAG3 (PE, eBioscience), Tim-3 (BV 510, BioLegend), and B7-H3 (PE, R&D Systems). CAR molecules were stained with recombinant B7-H3 Fc (R&D Systems), protein L (Pierce Protein Biology), 1A7 anti-idiotype antibody, or FMC63 anti-idiotype antibody 136.20.1 conjugated in house using DyLight 650 Antibody Labeling Kit (Thermo Fisher). T cells were cultured in AIM V (Thermo Fisher) supplemented with 5% fetal bovine serum (Gibco), 100 U/mL rhIL-2 (PeproTech), 2 mM L-glutamine, 10 mM HEPES, 100 U/mL penicillin, and […] streptomycin (Invitrogen). Cancer cell lines were cultured in RPMI (Thermo Fisher) supplemented with 10% fetal bovine serum, 2 mM L-glutamine, 10 mM HEPES, 100 U/mL penicillin, and […] streptomycin.
as §1, §2

T cells = assay: T cell aggregation during in vitro culture (microscope images); format: cell-based; conditions: CAR-SMASh T cells incubated with inhibitor
[2] = system: B7H3-expressing Nalm6 GFP tumor cells; assay: Co-culture killing assay (tumor GFP fluorescence); format: cell-based; conditions: for cytotoxicity of B7H3 CAR-SMASh T cells incubated with drug prior to co-culture: 3 μM, various amounts of time (from 24 h)
Protocol: Cancer cell fluorescence was monitored by time-lapse microscopy. Total integrated fluorescence intensity was calculated and plotted as a function of time. […] Cytokine in culture supernatant was quantified using the Human IL-2 ELISA MAX™ and Human IFN-γ ELISA MAX™ Deluxe kits (BioLegend).

[3] = system: B7H3 (low)-expressing Nalm6 GFP tumor cells; assay: Co-culture killing assay, low antigen (tumor GFP fluorescence); format: cell-based; conditions: 3 μM, various amounts of time, B7H3 (low) targets
Protocol: (§3) CAR T cells were co-cultured with indicated cancer cell lines, engineered to constitutively express green fluorescent protein, on day 10 post activation in 96-well plates at a ratio of 1:1 (50,000 cells each). Cancer cell fluorescence was monitored by time-lapse microscopy. Total integrated fluorescence intensity was calculated and plotted as a function of time. Co-culture supernatant was harvested after 24 hours of co-culture and analyzed for the presence of cytokine. Cytokine in culture supernatant was quantified using the Human IL-2 ELISA MAX™ and Human IFN-γ ELISA MAX™ Deluxe kits (BioLegend).

[4] = system: B7H3-expressing Nalm6 GFP; assay: Cytokine in co-culture supernatant (IFN-γ ELISA); format: cell-based
Protocol: as §3

[5] = system: Nalm6 leukemia cells expressing B7H3 and firefly luciferase; assay: In vivo Nalm6 leukemia model, bioluminescence imaging; parameters: species or system NSG mice; conditions: 50 mg/kg grazoprevir+25 mg/kg ritonavir three times per day by oral gavage
Protocol: NSG mice were infused with 10^6 Nalm6 leukemia cells expressing B7H3 and firefly luciferase. Four days later, mice were infused with 8×10^6 B7H3-BBz-SMASh CART cells or mock untransduced control cells. Mice that received B7H3-BBz-SMASh CAR T cells were either administered drug (50 mg/kg grazoprevir+25 mg/kg ritonavir) or vehicle (50% polyethylene glycol 300) three times per day by oral gavage. Bioluminescence imaging was used to follow the expansion of the firefly luciferase-expressing Nalm6 cells.
Assessed in this example was whether B7H3 CAR-nanoluciferase-SMASh CAR-T cell activity could be controlled in vivo against Nalm6 leukemia cells. NSG mice were infused with 10^6 Nalm6 leukemia cells expressing B7H3 antigen and firefly luciferase by tail vein injection. Four days later, mice were infused with 8×10^6 B7H3 CAR-nanoluciferase-SMASh CAR-T cells or mock un-transduced control T cells by tail vein injection. Mice in the “CAR OFF” group were administered 50 mg/kg grazoprevir+25 mg/kg ritonavir (a pharmacokinetic enhancer of grazoprevir) two to three times per day by oral gavage. Bioluminescence imaging was used to follow the expansion of the firefly luciferase-expressing Nalm6 cells.

[6] = system: CAR expression on T cells in vivo; assay: In vivo CAR expression by nanoluciferase imaging; conditions: MED8A mice, 50 mg/kg grazoprevir+25 mg/kg ritonavir two to three times per day by oral gavage
Protocol: In a further study, real-time expression of a C-terminal nanoluciferase (nLuc) domain-containing CAR was monitored in vivo by nanoluciferase-based imaging.
Next, in vivo CAR expression in the mice described in FIG. 27 was assessed by nanoluciferase imaging. Mice were injected with 200 μL of Nano-Glo substrate that was diluted 40× in PBS. After a 6-minute incubation period, the mice were imaged on an IVIS Spectrum imager.

[7] = system: GFP-labeled tumor cells expressing cognate antigen; assay: Co-culture killing assay of several CAR-SMASh T cells in presence of drug; format: cell-based; conditions: 3 μM asunaprevir
Protocol: as §3

[8] = loss of CAR expression and exhaustion markers (FIG. 6, FIG. 9)

Which results are given for `C=C[C@@H]1C[C@]1(NC(=O)[C@@H]1C[C@@H](Oc2ncc(OC)c3ccc(Cl)cc23)CN1C(=O)[C@@H](NC(=O)OC(C)(C)C)C(C)(C)C)C(=O)NS(=O)(=O)C1CC1` [asunaprevir, Asunaprevir]?
CD19 CAR-SMASh expression after incubation with protease inhibitor (HCV NS3 protease; 3 μM, various amounts of time): decrease in CD19 CAR-SMASh expression; CD22 CAR-SMASh expression after incubation with protease inhibitor (HCV NS3 protease; 3 μM, various amounts of time): decrease in CD22 CAR-SMASh expression; GD2 CAR-SMASh expression after incubation with protease inhibitor (HCV NS3 protease; 3 μM, various amounts of time): decrease in GD2 CAR-SMASh expression; CAR expression after removal of the protease inhibitor by washing (HCV NS3 protease): recovery of CAR expression; CAR expression after incubation with protease inhibitor (HCV NS3 protease; 3 μM, various amounts of time): decrease in CAR expression; time to full CAR re-expression after removal of drug (HCV NS3 protease; B7H3 SMASh-CAR T cells): ≤ 72 h; time at which reduction in CAR expression was maximal (HCV NS3 protease; B7H3 SMASh-CAR T cells, 3 μM): 96 h; time within which reduction in CAR expression occurred (HCV NS3 protease; B7H3 SMASh-CAR T cells, 3 μM): ≤ 24 h; reduction of CAR expression (HCV NS3 protease; B7H3 SMASh-CAR T cells, ex vivo, 3 μM (FIG. 4)): greater than 90%; CAR re-expression after removal of drug (HCV NS3 protease; B7H3 SMASh-CAR T cells, within 24 h of removal): approximately 1.5 log; expression of activation/exhaustion markers ([1]; CAR-SMASh T cells, 3 μM): reduces expression of activation/exhaustion markers; relationship between inhibitor and expression of CAR molecules and activation/exhaustion-associated markers ([1]; FIG. 9): dose-dependent relationship; concentration at which maximal effect was observed [1, 8]: 1 µM; concentration at which near maximal effect was observed [1, 8]: 0.3 µM; T cell aggregation during in vitro culture (T cells): resistant to aggregation; cytotoxicity of B7H3 CAR-SMASh T cells incubated with drug prior to co-culture [2]: reduced cytotoxicity; cytotoxicity of B7H3 CAR-SMASh T cells incubated with drug prior to co-culture ([2]; listed as asumaprevir): significant reduction in killing; cytotoxicity of B7H3 CAR-SMASh T cells after drug removal prior to co-culture ([2]; drug removed for various amounts of time): potent killing of tumor targets indistinguishable from constitutively expressed, non-regulated CAR T cells; cytotoxicity of B7H3 CAR-SMASh T cells incubated with drug prior to co-culture [3]: reduced cytotoxicity; time to restoration of interferon production after removal [4]: ≤ 24 h; interferon production in response to antigen expressing targets ([4]; drug-induced inhibition of CAR expression): very low levels

Which results are given for `C=C[C@@H]1C[C@]1(NC(=O)[C@@H]1C[C@@H]2CN1C(=O)[C@H](C(C)(C)C)NC(=O)O[C@@H]1C[C@H]1CCCCCc1nc3ccc(OC)cc3nc1O2)C(=O)NS(=O)(=O)C1CC1.O` [grazoprevir]?
cytotoxic capacity of B7H3-BBz-SMASh CAR T cells in vivo [5]: dramatically reduces the cytotoxic capacity; in vivo CAR expression (nanoluciferase imaging) [6]: diminished

What does the source list for `COc1ccc2c(O[C@@H]3C[C@H]4C(=O)N[C@]5(C(=O)NS(=O)(=O)C6CC6)C[C@H]5/C=C\CCCCN(C)C(=O)[C@@H]4C3)cc(-c3nc(C(C)C)cs3)nc2c1C` [simeprevir]?
CAR expression after removal of the protease inhibitor by washing (HCV NS3 protease): recovery of CAR expression; CAR expression after incubation with protease inhibitor (HCV NS3 protease; 3 μM, various amounts of time): decrease in CAR expression

With “GD2 CAR-SMASh: GD2 scFv (14G2A) CAR with 4-1BB, CD3 zeta and C-terminal SMASh tag (SEQ ID NO: 11)” as the molecule, how does the “cytotoxicity against target cells in the presence of drug (off state)” value [7] read?
The value was “significant cytotoxicity”.
